# System: A549 cells
# Assay: Cell viability
# Details: 24 h, 0.0005–0.1 mg/ml
structure (smiles),measurement,value
"CC(C(=O)O)c1cccc(C(=O)c2ccccc2)c1 (stereo not shown) [Free KTP, Ketoprofen]",in vitro cytotoxicity (MTT),did not show significant cytotoxicity
